What was measured:
HeLa cells [1] = test: Delivery of peptides inside live cells, internalization assessed by fluorescence microscopy; format: cell-based; conditions: 1 h incubation
Experimental: The TAT, dTAT and acTAT peptides were incubated for 1 h with several cell lines and internalization was assessed by fluorescence microscopy. […] See also FIG. 5. […] The cell lines HeLa, NIH 3T3, COLO 316 and HaCaT were incubated with 5 μM dTAT for 1 h, washed and imaged. […] After imaging, cells were incubated at 37° C. in a humidified atmosphere containing 5% CO2 for 24 h, washed and imaged again. […] Cell viability was assessed by exclusion of the cell-impermeable nuclear stain SYTOX® Blue at both 1 h and 24 h time point. […] Inverted monochrome (black=fluorescence signal, white-no signal) fluorescence images were made of HeLa cells incubated with 10 or 20 μM of TAT for 1 h.
Live cells from different lines (HeLa, HaCat, NIH 3T3) were grown in Dulbecco's […] (DMEM) (Fisher) supplemented with 10% fetal bovine serum (FBS) (Fisher) and kept at 37° C. in a humidified atmosphere containing 5% CO2. Cells were then seeded in 8-well dishes so that the cells were 80%-90% confluent after 48 h. […] The media (nrL-15) used for incubation lacks cysteine to avoid reduction of the disulfide bond of dTAT. Cells were then incubated with different concentrations of the acTAT, TAT, or dTAT at 37° C. for 1 h. […] Images were collected using a Rolera-MGI Plus back-illuminated EMCCD camera (Qimaging, Surrey, BC, Canada). Images were acquired using bright field imaging and three standard fluorescence filter sets: CFP (Ex=436±10 nm/Em=480±20 nm), RFP (Ex=560±20 nm/Em=630±35 nm), and FITC (Ex=488±10 nm/Em=520±20 nm). The fluorescence intensities of different cells were measured with the SlideBook 4.2 software (Olympus, Center Valley, Pa.) and the average fluorescence intensity was determined for each condition. It has been previously reported that CPPs labeled with fluorophores such as TMR can photosensitize membranes and cause endosomal leakage upon light irradiation. See, Srinivasan, D. et al., “Conjugation to the cell-penetrating peptide TAT potentiates the photodynamic effect of carboxytetramethylrhodamine,” PloS one 6:e17732 (2011) and Muthukrishnan, N., et al., “Synergy Between Cell-Penetrating Peptides and Singlet Oxygen Generators Leads to Efficient Photolysis of Membranes,” Photochemistry and Photobiology 89:625-630 (2012), each incorporated herein by reference in its entirety. […] First, all delivery experiments were performed under conditions of minimal light irradiation (dark room with dim red light). When fluorescence imaging is required, probes (e.g., SNAP surface 488, EGFP) are imaged before dTAT is, thereby minimizing the possible effect of light on endosomal release. For experiments performed with Cre and Hoxb4, cells are not imaged and not exposed to light (not at all for Hoxb4, 12 h after incubation for Cre).

HeLa cells [2] = test: Quantitative determination of peptide uptake inside cells (bulk fluorescence of cell lysates); format: cell-based; conditions: acTAT 5-25 μM (FIG. 23)
Experimental: HeLa cells were seeded in a 48 well dish, grown and washed as described above. For the peptide uptake experiment, each well was incubated for 1 h with varying concentration of acTAT, TAT or dTAT (range: 5-25 μM peptide concentration). For the titration experiment, cells were incubated with dTAT (5 μM) and varying concentrations of DEAC-K9 (range: 1-20 μM). Cells were then washed with PBS and nrL-15 and imaged. Multiple images for each condition were obtained and processed. To lyse cells, nrL-15 was removed from the wells and a total of 100 μL of HeLa cell lysis Buffer (50 mM Tris pH 7.5, 2 mM EDTA, 2 mM DTT, 0.1% Triton X-100) was incubated with cells for 5 min. The cells were lysed and scraped off the dish and pipetted into a 1.5 mL microcentrifuge tube. The cell lysates were centrifuged at 13.2K RPM for 25 min. […] The fluorescence from the cell lysates were measured using a plate reader equipped with a fluorescence module (Ex==525, Em=580-640 nm) (GloMax®-Multi+ Detection System, Promega, Fitchburg, Wis.). For the titration experiment, 80 μL of supernatant was diluted to a total volume of 100 μL and the bulk fluorescence was measured using a SLM-8000C fluorometer (Ex=435 nm, Em=465-475 nm) (SLM Instruments, Bath, UK). The fluorescence emission was averaged and recorded. […] The absorbance at 600 nm was measured using the plate reader. […]

[3] = system: HeLa transfected with the pCALNL-GFP plasmid; format: cell-based
Experimental: The number of cells in the images was approximately the same as assessed by bright field microscopy (1,000 cells/experiment, experiments in triplicate, average and standard deviations represented). Scale bars, 100 μM.
To further confirm that functional proteins can penetrate cells upon incubation with dTAT, delivery of Cre recombinase was tested. In this assay, Cre induces recombination of a loxP-STOP-loxP sequence upstream of the egfp gene of a reporter plasmid.

HeLa cells [4] = test: Effect of endocytic inhibitors on cytosolic delivery of dTAT; format: cell-based; conditions: 50 μM amiloride or 200 nM bafilomycin pre-treatment, then 5 μM dTAT and inhibitor
Experimental: (§1) FIGS. 8A-8C illustrate that dTAT mediates endosomal escape. (FIG. 8A) Effect of endocytic inhibitors on the cellular distribution of dTAT. HeLa cells were pre-treated with 50 μM amiloride or 200 nM bafilomycin for 30 and 20 min respectively, washed, and incubated with 5 μM dTAT and inhibitor. […] Scale bar, 10 μm. […] A schematic illustration of the experimental steps is shown (top). First, cells were incubated with 5 μM DEAC-K9 for 1 h and washed. Inverted monochrome images show a fluorescence punctuate distribution after incubation with DEAC-K9 alone. The same cells were then incubated with 5 μM dTAT for 1 h. Images show a redistribution of DEAC-K9 to the cytosol and nucleus (inhibited by bafilomycin). Scale bars, 10 μm. (FIG. 8C) The endosomolytic activity of dTAT is highly efficient. HeLa cells expressing SNAPH2B were incubated with 5 μM dTAT and 5 μM SNAP-Surface® 488. Fluorescence images show accumulation of SNAP-Surface® 488 in the nucleus. […] Small panels show cytosolic and nuclear fluorescence of TMR. Scale bars, 10 μm.
(§2) To test whether endosomal escape is involved in delivery of dTAT, the effects of amiloride, a macropinocytosis inhibitor, and bafilomycin, an inhibitor of endosomal acidification, were assessed. […] Cells were then washed and incubated with dTAT (FIG. 8B). […] This redistribution was however inhibited by bafilomycin.

HeLa cells [5] = test: dTAT-induced cytosolic release of DEAC-K9 trapped inside endosomes; format: cell-based
Experimental: as §1, §2

NIH 3T3 cells = test: HoxB4 and TAT-HoxB4 delivery, luciferase reporter under a HoxB4-inducible promoter; format: cell-based, murine
Experimental: Next, the delivery of the therapeutically important transcription factor HoxB4 was tested. HoxB4 can penetrate cells by itself or when fused to the […] TAT and activate transcription. […] NIH 3T3 cells were transfected with a vector containing the luciferase gene under a HoxB4-inducible promoter and with a β-galactosidase reporter as internal control. Cells were incubated with HoxB4 or TAT-HoxB4, in the absence or presence of dTAT for 1.5 h. Cells were then lysed and luciferase expression was assessed by measuring the luminescence of cell lysates normalized to β-galactosidase activity. […] These values are consistent with previously published reports. In contrast, addition of dTAT (3 μM), led to a luciferase induction of 53.1 and 307.4, respectively. The luciferase induction was therefore increased 24-fold in the presence of dTAT for HoxB4 and 61-fold for TAT-HoxB4. […] While increasing the transcriptional output of HoxB4 is valuable, high levels of HoxB4 expression can result in anti-proliferative and transforming effects. Precisely controlling the level and activity of HoxB4 inside cells is therefore important to achieve a desirable biological outcome. Because dTAT appears to act independently of the molecules used for co-incubation in our assays, it was hypothesized that it might be possible to titrate the amount of protein that penetrates cells by varying the protein concentration in the media while keeping dTAT concentration constant. Under this scenario, the efficiency of endosomal escape should remain unaffected but the amount of material released from endosomes should change.
The murine fibroblast cell line (NIH-3T3, stably transfected with the E2A-PBX vector), the luciferase reporter vector, pML (5×HOX/PBX; contains a promoter with binding sites for HOXB4 and PBX) and the β-gal internal control vector used in the following studies were kindly provided by P. Zandstra (University of Toronto, Ontario, Canada). The cells were initially cultured in 100 mm dishes at 37° C. with 5% CO2 in DMEM supplemented with 10% FBS. For experimental purposes, however, cells were seeded in 24-well plates at a density of 5-6×10^4 cells/well for 24 hours. Subsequently, cells were co-transfected with 0.8 μg/mL of pML (5×HOX/PBX) and of the β-gal internal control vector using Lipofectamine 2000. Twelve hours post-transfection, cells were washed and incubated with TAT-HoxB4 or HoxB4 (both at 200 nM, unless otherwise noted; see below) with or without TAT or dTAT in nrL-15 for 90 min. Some cells were also incubated with TAT-mCherry (200 nM) with and without the peptides. After incubation, all cells were washed with PBS and lysed according to the manufacturer's protocol for the reporter lysis buffer (RLB) (Promega). For titration experiments, the same protocol was followed, with the exception that HoxB4 concentrations were varied (25, 50, 100, 150 and 200 nM). In order to quantitate the luciferase reporter activity, 100 μL of luciferase assay reagent (Promega) was added to 20 μL of cell lysate and bioluminescence was immediately measured using a SpectraMaxL luminometer (Sunnyvale, Calif.). […] Absorbance was then measured at 450 nm using the plate reader. Since the absorption spectrum of the chromophore (TMR) conjugated to the peptide used in this study overlaps with that of β-gal, 20 μL of cell lysate containing the peptide was also diluted with 180 μL of the lysis buffer and absorbance values obtained at 450 nm were subtracted from that of the β-gal absorbance values. […]

C(S—CH2CONH2)K(ε-NH-TMR)TAT [acTAT]
cellular localization of peptide fluorescence (HeLa cells [1]; 1-20 μM): punctate distribution | endosomal escape when internalized amount is above the dTAT threshold level (HeLa cells [2]): does not achieve endosomal escape

CK(ε-NH-TMR)TAT ({Cys-K(TMR)}-RKKRRQRRRG-NH2) [monomer product: cysteine, TMR-modified lysine, TAT CPP domain … with C-terminal glycine amide]
cellular localization of peptide fluorescence (HeLa cells [1]; 20 μM): many cells display cytosolic fluorescence | cellular localization of peptide fluorescence (HeLa cells [1]; up to 10 μM): localized inside endosomes | percentage of EGFP+ cells [3]: 4.8%

CO/C1=C\C(C)=C\[C@@H](C)[C@@H](O)[C@@H](C)C/C(C)=C/C=C/[C@H](OC)[C@@H]([C@@H](C)[C@@H](O)[C@H](C)[C@@]2(O)C[C@@H](O)[C@H](C)[C@@H](C(C)C)O2)OC1=O [bafilomycin, reference compound]
effect of inhibitor on cytosolic delivery of dTAT (HeLa cells [4]): inhibited the cytosolic delivery of dTAT | effect of bafilomycin on dTAT-induced DEAC-K9 redistribution (HeLa cells [5]): inhibited

N=C(N)NC(=O)c1nc(Cl)c(N)nc1N [amiloride]
effect of inhibitor on cytosolic delivery of dTAT (HeLa cells [4]): inhibited the cytosolic delivery of dTAT

HoxB4: transcription factor with therapeutic potential for in vitro expansion of hematopoietic stem cells
luciferase induction versus HoxB4 concentration (NIH 3T3 cells; HoxB4 25-200 nM, dTAT 3 μM): responded linearly with the concentration of HoxB4 in the media | increase in luciferase activity over cells not treated with protein (NIH 3T3 cells; protein 200 nM alone, 1.5 h): 2.2 fold | luciferase induction (NIH 3T3 cells; protein 200 nM with dTAT 3 μM, 1.5 h): 53.1 fold | increase of luciferase induction in the presence of dTAT over protein alone (NIH 3T3 cells; protein 200 nM, dTAT 3 μM): 24 fold

From patent US9662404B2, “Compositions and methods for the delivery of molecules into live cells” (The Texas A&M University System, priority 2013, dated 2017)
